In US20190231771A1, “METHODS FOR TREATMENT AND PREVENTION OF OPIOID INDUCED CONSTIPATION USING ORAL COMPOSITIONS OF METHYLNALTREXONE” (Salix Pharmaceuticals, Ltd., priority 2011, published 2019):
Values joined by “and” are separate entries in the source; they are usually repeats but may differ in a detail not shown here. Identical values can stand only once. “Also recorded” adds a separate entry of the source.

Tests used:
[1] = Study A: single and multiple dose pharmacokinetics after subcutaneous 12 mg methylnaltrexone; type: in vivo, human; conditions: for AUC(0-t) / Cmax: sc, 12 mg; for AUC(0-t): read-out: AUC0-24; for Cmax: read-out: Cmax
Experimental: Presented herein is a clinical pharmacokinetics study, Study C, as well as Studies A and B. Study A investigated the single and multiple dose pharmacokinetics of methylnaltrexone (MNTX) and its metabolites (M2: methylnaltrexone sulfate; M4: 6α-methylnaltrexol; and M5: 6β-methylnaltrexol) following the subcutaneous administration of 12 mg methylnaltrexone. In Study B, the single and multiple dose pharmacokinetics of methylnaltrexone (MNTX) and its metabolites (M2, M4, and M5) were examined following a 20-minute short intravenous infusion of 24 mg of methylnaltrexone (MNTX).
Pharmacokinetic parameters included Cmax, AUCt, AUCinf, tmax, t1/2, % Re24, accumulation factor (R) as defined below and metabolite/parent drug ratio.
R=Accumulation Factor(based on AUC0-24(ng·h/mL):Day 7 AUC AUC0-24/Day 1 AUC0-24
Metabolite-Parent Drug ratio(based on ng·h/mL)(%)=100*(Metabolite AUC24/MNTX AUC24)
Note: AUCinf was used in place of AUC AUC0-24 for R and Metabolite-Parent Drug ratio computations following IV administration.

[2] = Food effect study: single oral 450 mg MNTX fasted vs high-fat breakfast, 2-period crossover; type: in vivo, human; conditions: for Cmax / half-life / AUC(0-inf) / AUC(0-t) / Tmax: both sexes, human, plasma, oral, 450 mg; for half-life: harmonic mean; for Tmax: median
Experimental: Presented herein is a single-dose, 2-period crossover study to evaluate the effect of a standard high-fat breakfast on the pharmacokinetics of a single oral dose of 450 mg (3×150 mg tablets) MNTX. The study had 2 arms and 2 dosing periods.
Thirty-two subjects were enrolled into this study. Subjects were randomized at a 1:1 ratio to Arm 1 (fasted then fed) or Arm 2 (fed then fasted). Randomization was stratified by sex. Each subject received a single dose of MNTX 450 mg (administered as 3×150 mg tablets) with a high fat meal (MNTX fed) and after fasting (MNTX fasted). The fasted/fed study periods were separated by 7 days. The sequence of fasted/fed or fed/fasted dosing on Days 1 and 8 was determined by randomization on Day 1.
For the fasted treatment, a single 450 mg (3×150 mg) oral dose of MNTX tablets was administered to subjects following a supervised overnight fast of at least 10 hours. No food was allowed for at least 4 hours post dose.
For the fed treatment, a standard high-fat breakfast was given to the subjects following an overnight fast of at least 10 hours. A single 450 mg (3×150 mg) oral dose of MNTX tablets was administered to subjects 30 minutes after the subject began the meal. No food was allowed for at least 4 hours after drug administration.
Subjects were administered a single oral dose of MNTX tablets (450 mg) on Day 1 and Day 8 after a high fat meal or fasting as follows: (a) MNTX 450 mg (orally as 3×150 mg tablets) administered after a high-fat (high caloric) breakfast, or (b) MNTX 450 mg (orally as 3×150 mg tablets) administered after fasting.
Subjects received a single dose of MNTX 450 mg administered orally as 3×150 mg tablets immediately after a high fat/high calorie meal (MNTX fed) and after fasting (MNTX fasted). A 7-day washout period separated the fasted/fed crossover periods. The sequence of fasted/fed or fed/fasting dosing on Days 1 and 8 was determined by randomization on Day 1. Subjects fasted overnight for a minimum of 10 hours prior to administration of a high fat meal with the single dose of study drug (MNTX fed) or 10 hours prior to administration of the single dose of study drug (MNTX fasted).
Each dose on Day 1 and 8 was administered with 240 mL of room temperature drinking water, and the subjects were instructed to drink all of the water. No food was permitted for 4 hours after drug administration and water was allowed as desired except for 1 hour before and after drug administration. Approximately 4 hours after dosing, a normal meal schedule could be resumed.
A high fat/high caloric meal includes fat content of approximately 50% of total calories in the meal (approximately 800 to 1000 calories total). Subjects receiving the MNTX fed treatment regimen were required to fast for at least 10 hours before breakfast and then to eat the protocol-specified breakfast starting 30 minutes before dosing. The high-fat, high caloric breakfast consisted of the following: • Two slices of toast with ½ pat of butter on each slice. • Two eggs fried in butter. • Two strips of bacon. • Four ounces (113 g) hash brown potatoes. • Eight ounces (240 mL) of whole milk.
Plasma concentrations of MNTX were determined using a validated analytical procedure involving high performance liquid chromatography with tandem quadrupole mass spectrometric detection. Blood samples for determination of MNTX concentrations in plasma were obtained predose (approximately 1 hour prior to dose administration) on Day 1, and at 0.25, 0.5, 1, 2, 4, 6, 8, 10, 12, 16, 24, 36, 48, 72, 96, 120, 144 and 168 hours following each dose administration on Days 1 and 8. Pharmacokinetic parameters that were measured and calculated include the following: […]

[3] = human, plasma, 12 mg SC Injection, Day 1, mean
[4] = human, plasma, 12 mg SC Injection, Day 7, mean
[5] = 450 mg Single-Dose Fasted, mean

C[N@+]1(CC2CC2)CC[C@]23c4c5ccc(O)c4O[C@H]2C(=O)CC[C@@]3(O)[C@H]1C5.[Br-] [MNTX, (R)—N-(cyclopropylmethyl) noroxymorphone methobromide]
AUCinf ([1]; 12 mg SC Injection, Day 7, mean): 223.0 ng·h/mL
R (SC), accumulation factor ([1]; 12 mg SC Injection, AUC0-24 on Day 7/AUC0-24 on Day 1): 1.05
AUC(0-t) [1, 3]: 218 ng·h/mL
Cmax [1, 3]: 140 ng/mL
AUC(0-t) [1, 4]: 223 ng·h/mL
Cmax [1, 4]: 119 ng/mL
bioavailability ([1]; human, plasma, subcutaneous, 12 mg SC vs 24 mg IV infusion, cross-study, read-out: bioavailability of subcutaneous injection relative to short-term infusion): 112%
AUC(0-inf) [1, 3]: 223 ng·h/mL
Tmax ([1]; human, plasma, 12 mg SC Injection, Day 1, median, read-out: Tmax): 0.25 h
half-life ([1]; human, plasma, 12 mg SC Injection, day not given, harmonic mean): 5.33 h
CL/F [2, 5]: 1608644 mL/h
λz [2, 5]: 0.04 h⁻¹ and 0.0403 h⁻¹
CL/F ([2]; 450 mg Single-Dose Fed, mean): 2961340 mL/h
λz ([2]; 450 mg Single-Dose Fed, mean): 0.04 h⁻¹ and 0.0413 h⁻¹
AUC0-∞ Geometric Mean Ratio, fasted divided by fed ([2]; 450 mg single dose): 198.17%
AUClast Geometric Mean Ratio, fasted divided by fed ([2]; 450 mg single dose): 199.28%
AUClast and AUC0-∞ higher in fasted as compared with fed subjects ([2]; 450 mg single dose): approximately 2 fold
Cmax Geometric Mean Ratio, fasted divided by fed ([2]; 450 mg single dose): 273.6% and 273.62%
arithmetic mean Cmax in fed subjects as share of that in fasted subjects ([2]; 450 mg single dose): ~28%
decrease of systemic exposure by food (as determined by AUC and Cmax) ([2]; 450 mg single dose): approximately half to three quarters
systemic exposure (AUClast and AUC0-∞) lower in fed than in fasted subjects ([2]; 450 mg single dose): approximately 50%
bioequivalence under fed and fasted conditions (80% to 125% range) ([2]; 450 mg single dose, Cmax, AUClast, AUC0-∞): nonbioequivalence; also recorded: non-bioequivalent; also recorded: not bioequivalent
deaths, SAEs, TEAEs resulting in study discontinuation ([2]; 450 mg single doses): no deaths, SAEs, or TEAEs resulting in study discontinuation
effect on cardiac safety parameters or vital signs ([2]; 450 mg single doses): No significant effect
intensity of TEAEs ([2]; 450 mg single doses): mild
relation of TEAEs to MNTX (investigator) ([2]; 450 mg single doses): No TEAEs were considered by the investigator to be related to MNTX
subjects with headache (most frequent TEAE) ([2]; 450 mg single doses, 32 subjects): 6%
subjects experiencing at least 1 TEAE ([2]; 450 mg single doses, 32 subjects, whole study): 16%
Cmax ([2]; 450 mg Single-Dose Fasted, arithmetic mean, read-out: Cmax): 45.5 ng/mL
half-life ([2]; 450 mg Single-Dose Fasted): ~17 h
AUC(0-inf) ([2]; 450 mg Single-Dose Fasted, mean, read-out: AUC0-∞): 364 ng·h/mL
AUC(0-t) ([2]; 450 mg Single-Dose Fasted, mean, read-out: AUClast): 361 ng·h/mL
Tmax ([2]; 450 mg Single-Dose Fasted): 2 h
Cmax ([2]; 450 mg Single-Dose Fed, arithmetic mean, read-out: Cmax): 12.9 ng/mL
half-life ([2]; 450 mg Single-Dose Fed): ~17 h
AUC(0-inf) ([2]; 450 mg Single-Dose Fed, mean, read-out: AUC0-∞): 169 ng·h/mL
AUC(0-t) ([2]; 450 mg Single-Dose Fed, mean, read-out: AUClast): 166 ng·h/mL
Tmax ([2]; 450 mg Single-Dose Fed): 4 h
AUC(0-inf) ([2]; 450 mg single dose, Fasted, read-out: AUC0-∞, Geometric Least Squares Mean): 317 ng·h/mL
AUC(0-t) ([2]; 450 mg single dose, Fasted, read-out: AUClast, Geometric Least Squares Mean): 314 ng·h/mL
Cmax ([2]; 450 mg single dose, Fasted, read-out: Cmax, Geometric Least Squares Mean): 33.4 ng/mL
AUC(0-inf) ([2]; 450 mg single dose, Fed, read-out: AUC0-∞, Geometric Least Squares Mean): 160 ng·h/mL
AUC(0-t) ([2]; 450 mg single dose, Fed, read-out: AUClast, Geometric Least Squares Mean): 158 ng·h/mL
Cmax ([2]; 450 mg single dose, Fed, read-out: Cmax, Geometric Least Squares Mean): 12.2 ng/mL
subjects with TEAEs ([2]; fasted dosing period): Four
subjects with TEAEs ([2]; fed dosing period): 3 subjects
tolerability ([2]; single dose of MNTX 450 mg): well tolerated
